# In patent publication US10738028B2, “Spiro three-membered ring, spiro five-membered ring peptide deformylase inhibitor and use thereof in antibacteria and anti-tumor” (priority 2016, dated 2020):
# Columns and labels:
# Format in all cases: cell-based
# [1] = test system: Enterococcus faecalis (EFA); experiment: MIC, two-fold agar dilution (CLSI), clinical isolates
# Text: (§1) 1. The invention adopts the two-fold agar dilution method recommended by the operating procedure of antimicrobial susceptibility testing set by American Clinical and Laboratory Standards Institute (CLSI) to determine the Minimum Inhibitory Concentration (MIC) of the test samples against the tested strains.
# [2] = test system: Enterococcus faecium (EFM); experiment: as above
# Text: as §1
# [3] = test system: Escherichia coli (including ESBLs, non-ESBLs); experiment: as above
# Text: as §1
# [4] = test system: Moraxella catarrhalis (BCA); experiment: as above
# Text: as §1
# [5] = test system: Streptococcus pneoumoniae (SPN); experiment: as above
# Text: as §1
# [6] = test system: methicillin-resistant Staphylococcus aureus (MRSA); experiment: as above
# Text: as §1
# [7] = test system: methicillin-resistant Staphylococcus epidermidis (MRSE); experiment: as above
# Text: as §1
# [8] = test system: methicillin-sensitive Staphylococcus aureus (MSSA); experiment: as above
# Text: as §1
# [9] = test system: methicillin-sensitive Staphylococcus epidermidis (MSSE); experiment: as above
# Text: as §1
# [10] = test system: HCT-116 colorectal cancer cell line; experiment: CCK-8 proliferation inhibition; details: Homo sapiens, HCT-116, 72 h, concentration of 30 μM; 72 hours; CCK-8; read-out: HCT116 inhibition rate/%
# Procedure: (1) HCT-116 colorectal cancer cell line, A549 lung cancer cell line, MGC-803 gastric cancer cell line, BEL-7402 liver cancer cell line, Jurkat T cell leukemia cell line, HL60 acute myeloid leukemia cell line, Hela cervical cancer cell line, MCF-7 breast cancer cell line, PC3 prostate cancer cell line and SAOS-2 osteosarcoma cell line were made into single cell suspension, 180 μL of which was inoculated into 96-well culture plate, which was cultured overnight in CO2 incubator (37° C., 5% CO2, 95% air).
# (2) Each of the spiro three-membered ring, spiro five membered ring peptide deformylase inhibitors was dissolved in DMSO, and was further formulated into drug solution with required different final concentration using corresponding cell culture medium. The drug solutions were added to the above cells respectively (20 μL/well), with the control group added with 1‰ DMSO, and cultured in a CO2 incubator for 72 hours.
# (3) After incubation for 72 hours, the culture solution was decanted, and 100 μL of 1:10 diluted CCK-8 solution was added.
# Wherein, in step (1), the concentration of the single cell suspension was 2000 cells/well.
# Wherein, in step (2), HCT-116 cells were cultured in McCoy's 5A medium (containing 10% newborn bovine serum, 1% double antibody); A549 and PC3 cells were cultured in F12 medium (containing 10% newborn bovine serum, 1% double antibody); MGC-803, BEL-7402, SAOS-2, Jurkat and HL60 cells were cultured in 1640 medium (containing 10% newborn bovine serum, 1% double antibody); and MCF-7 and Hela cells were cultured in DMEM high glucose medium (containing 10% newborn bovine serum, 1% double antibody).
structure (smiles),measurement,setting,value
CCCC[C@H](CN(O)C=O)C(=O)N1CC2(CC2)C[C@H]1C(=O)Nc1cnccn1 [Example 15],MIC (anti-bacterial activity),[1]; strain EFA 15-1,1 µg/mL
same,MIC (anti-bacterial activity),[1]; strain EFA 15-2,1 µg/mL
same,MIC (anti-bacterial activity),[1]; strain EFA 15-3,1 µg/mL
same,MIC (anti-bacterial activity),[1]; strain EFA 15-4,1 µg/mL
same,MIC (anti-bacterial activity),[1]; strain EFA 15-5,4 µg/mL
same,MIC (anti-bacterial activity),[1]; strain EFA 15-6,4 µg/mL
same,MIC (anti-bacterial activity),[1]; strain EFA 15-9,1 µg/mL
same,MIC (anti-bacterial activity),[2]; strain EFM 15-1,1 µg/mL
same,MIC (anti-bacterial activity),[2]; strain EFM 15-2,1 µg/mL
same,MIC (anti-bacterial activity),[2]; strain EFM 15-3,0.125 µg/mL
same,MIC (anti-bacterial activity),[2]; strain EFM 15-4,1 µg/mL
same,MIC (anti-bacterial activity),[2]; strain EFM 15-5,0.125 µg/mL
same,MIC (anti-bacterial activity),[2]; strain EFM 15-6,1 µg/mL
same,MIC (anti-bacterial activity),[3]; strain ECO+ 15-1,32 µg/mL
same,MIC (anti-bacterial activity),[3]; strain ECO+ 15-2,64 µg/mL
same,MIC (anti-bacterial activity),[3]; strain ECO+ 15-3,32 µg/mL
same,MIC (anti-bacterial activity),[3]; strain ECO+ 15-4,32 µg/mL
same,MIC (anti-bacterial activity),[3]; strain ECO− 15-1,32 µg/mL
same,MIC (anti-bacterial activity),[3]; strain ECO− 15-2,64 µg/mL
same,MIC (anti-bacterial activity),[3]; strain ECO− 15-3,64 µg/mL
same,MIC (anti-bacterial activity),[3]; strain ECO− 15-4,64 µg/mL
same,MIC (anti-bacterial activity),[4]; strain BCA 14-1,0.5 µg/mL
same,MIC (anti-bacterial activity),[4]; strain BCA 14-4,0.5 µg/mL
same,MIC (anti-bacterial activity),[4]; strain BCA 14-5,0.125 µg/mL
same,MIC (anti-bacterial activity),[4]; strain BCA 14-6,1 µg/mL
same,MIC (anti-bacterial activity),[4]; strain BCA 14-7,0.125 µg/mL
same,MIC (anti-bacterial activity),[4]; strain BCA 14-8,0.5 µg/mL
same,MIC (anti-bacterial activity),[4]; strain BCA 14-10,0.125 µg/mL
same,MIC (anti-bacterial activity),[5]; strain SPN 16-2,0.015 µg/mL
same,MIC (anti-bacterial activity),[5]; strain SPN 16-4,0.5 µg/mL
same,MIC (anti-bacterial activity),[6]; strain MRSA 15-1,0.125 µg/mL
same,MIC (anti-bacterial activity),[6]; strain MRSA 15-2,0.25 µg/mL
same,MIC (anti-bacterial activity),[6]; strain MRSA 15-3,0.125 µg/mL
same,MIC (anti-bacterial activity),[6]; strain MRSA 15-4,0.25 µg/mL
same,MIC (anti-bacterial activity),[7]; strain MRSE 15-1,0.125 µg/mL
same,MIC (anti-bacterial activity),[7]; strain MRSE 15-2,0.25 µg/mL
same,MIC (anti-bacterial activity),[7]; strain MRSE 15-3,0.25 µg/mL
same,MIC (anti-bacterial activity),[7]; strain MRSE 15-7,0.25 µg/mL
same,MIC (anti-bacterial activity),[8]; strain MSSA 15-3,0.25 µg/mL
same,MIC (anti-bacterial activity),[8]; strain MSSA 15-4,0.125 µg/mL
same,MIC (anti-bacterial activity),[8]; strain MSSA 15-5,0.125 µg/mL
same,MIC (anti-bacterial activity),[8]; strain MSSA 15-6,0.125 µg/mL
same,MIC (anti-bacterial activity),[9]; strain MSSE 15-3,0.25 µg/mL
same,MIC (anti-bacterial activity),[9]; strain MSSE 15-4,0.06 µg/mL
same,MIC (anti-bacterial activity),[9]; strain MSSE 15-5,0.06 µg/mL
same,MIC (anti-bacterial activity),[9]; strain MSSE 15-6,0.06 µg/mL
same,inhibition at 30 µM,[10],24%
